One may read the Papp A→B as how fast a substance crosses the layer from the apical side. High values mean ready permeation, low ones poor permeation. A word on the Papp B→A: it is how fast a substance crosses the layer from the basolateral side. A word on the efflux ratio: it is the permeability from basolateral to apical divided by that in the opposite direction, in the common usage. What is called Papp is the rate of passage across a membrane or cell layer, normalised by area and donor concentration. The low end stands for slow passage, the high end for fast passage.

This is an account of results in publication PMC6150385, “The Blood-Brain Barrier Permeability of Six Indole Alkaloids from Uncariae Ramulus Cum Uncis in the MDCK-pHaMDR Cell Monolayer Model” (Molecules : A Journal of Synthetic Chemistry and Natural …, 2017).

One data set concerns P-gp. Kind of data set: Transport in the presence and absence of verapamil (P-gp function / verapamil inhibition of efflux) in MDCK-pHaMDR cell monolayer. On the procedure:
The cell monolayers were washed twice with prewarmed HBSS before the experiments were carried out. The HBSS medium in the AP side (0.5 mL, for absorption transport) or BL side (1.5 mL, for efflux transport) was replaced with different test compounds. The plates were shaken at 55 rpm for 90 min at 37 °C in a water bath. Samples were quantitatively collected from both sides of the cell monolayer, immediately frozen, lyophilized, and then preserved below −20 °C. To measure the intracellular amounts, the cell monolayers were lyophilized after three freeze (−20 °C)–thaw (room temperature) cycles and preserved below –20 °C. […] The tested concentrations of alkaloids 1–6 were 40 µM. The function of P-gp were tested by the transport of Rh123 at 10 µM in the presence and absence of verapamil (100 µM) undertaken as described above.
The verapamil inhibition experiment was carried out for alkaloids 1 and 3. The cells were pre-incubated with 100 µM of verapamil for 30 min before drug transport assays. Then verapamil was added to both sides, and 40 µM of test alkaloid was added to AP or BL side.
Papp in AP→BL or BL→AP direction of each alkaloid was calculated based on the following equation:Papp = dQ/dt/A/C0 (cm/s) where Q is the accumulation quantity of the alkaloid in the receiver side (μmol), dQ/dt is the linear appearance rate of the alkaloid in the receiver side (μmol/s), C0 is the initial concentration in the donor side (µM), and A is the membrane surface area (cm^2). All of the experiments were conducted in six duplications and data were expressed as the mean ± SD.

Data set [1] can be described thus: Stability of QC samples after three freeze-thaw cycles (HPLC). Type of data set: physicochemical. As to conditions: three freeze (−20 °C)-thaw cycles, percentage remains. On the procedure: The stock solutions of the six alkaloids were diluted to three concentrations (low, medium and high) as quality control (QC) samples. Accuracy, precision and stability of QC samples were validated. Accuracy and intraday precision were evaluated by determining the QC samples in three replicates on the same day, while interday precision was assessed by repeated analysis of the same QC samples over three consecutive days. Precision was estimated by RSD, which should not exceed 15%. Accuracy was assessed by comparison of the calculated mean concentrations with the spiked concentrations, and the acceptable range should be within 85–115%. The absolute recoveries of six alkaloids were determined by comparing the peak areas of analytes in QC samples with those of the standard solutions in MeOH with equivalent concentrations.

For data set [2], the system named is MDCK-pHaMDR cell monolayer. The following applies: for BBB permeability classification: MDCK-MDR1; for intracellular accumulation rates: dog, MDCK-MDR1, 90 min, 40 µM.
The next data set can be described thus: in vitro. As to conditions: dog.
Data set [3] in a line: Bidirectional transport across MDCK-pHaMDR cell monolayer (in vitro BBB model). The following applies: dog; for recovery at 90 min, 40 µM: MDCK-MDR1, Recovery Rate.
The test system of data set [4] is MDCK-pHaMDR cell monolayer. The data set is described as above. As to conditions: for Intracellular Accumulation / Efflux Ratio (Papp BL→AP/Papp AP→BL): 40 μM, 90 min; for transport mechanism: time- (30–180 min) and concentration- (20–120 μM) dependence.
[5] abbreviates: dog, MDCK-MDR1, with verapamil 100 µM.
The mark [6] stands for this setting: MDCK-MDR1, Papp AP→BL, 40 μM, 90 min.

With `COC(=O)c1ccccc1-c1c2ccc(=N)cc-2oc2cc(N)ccc12` [Rh123, Rhodamine 123, reference compound], the Papp A→B at 90 min, 10 µM was found to be 0.843 ± 0.195 ×10⁻⁶ cm/s in the data set with P-gp (dog, MDCK-MDR1) and 1.27 ± 0.213 ×10⁻⁶ cm/s in the data set on P-gp (setting [5]). Besides, the Papp B→A at 90 min, 10 µM in the data set on P-gp (dog, MDCK-MDR1) was 5.8 ± 0.259 ×10⁻⁶ cm/s; with P-gp (setting [5]) it was 1.71 ± 0.099 ×10⁻⁶ cm/s. The efflux ratio at 90 min, 10 µM with P-gp (dog, MDCK-MDR1, Efflux Ratio (Papp BL→AP/Papp AP→BL), Rh123 10 μM, 90 min, absence of verapamil) came to 6.88; in the data set with P-gp (dog, MDCK-MDR1, with verapamil 100 µM, Efflux Ratio (Papp BL→AP/Papp AP→BL), Rh123 10 μM with 100 μM verapamil, 90 min), 1.34.
In turn, `CC[C@H]1CN2CC[C@]3(C(=O)Nc4ccccc43)[C@@H]2C[C@@H]1/C(=C\OC)C(=O)OC` [alkaloid 1, rhynchophylline] yielded a Papp A→B at 90 min, 40 µM with P-gp (dog, MDCK-MDR1) of 22.2 ± 6.41 ×10⁻⁶ cm/s. Besides, in the data set on P-gp (dog, MDCK-MDR1), the Papp B→A at 90 min, 40 µM is 18.1 ± 1.09 ×10⁻⁶ cm/s. In addition, in the data set with P-gp (from verapamil (100 µM) inhibition of efflux), the P-gp substrate status result is given as “substrates of P-gp”. Besides, the Stability is on record as 96.32 ± 3.30% in data set [1] (QC sample 5 μM), 96.86 ± 4.64% in data set [1] (QC sample 60 μM) and 102.59 ± 3.38% in data set [1] (QC sample 120 μM). Moreover, in data set [2], the BBB permeability classification result was “moderate permeability”. In “in vitro” (MDCK-MDR1), the Papp B→A came out at 42.3 ± 2.48 ×10⁻⁶ cm/s. For the same molecule, the apical-to-basolateral permeability (Papp A→B) in the data set “in vitro” (MDCK-MDR1, Papp AP→BL (level), AP side to BL side) is ~1 ×10⁻⁶ cm/s; in “in vitro” (setting [6]), 4.37 ± 0.37 ×10⁻⁶ cm/s. Besides, the recovery at 90 min, 40 µM in data set [3] (AP→BL, 40 μM, 90 min) is 99.9 ± 1.15%; in data set [3] (BL→AP, 40 μM, 90 min), 102.2 ± 0.47%. The results for the “Intracellular Accumulation” value in data set [4] (AP→BL) and in data set [4] (BL→AP) were 0.36 ± 0.05% and 0.40 ± 0.04%, respectively.
`CC[C@H]1CN2CC[C@@]3(C(=O)Nc4ccccc43)[C@@H]2C[C@@H]1/C(=C\OC)C(=O)OC` [alkaloid 2, isorhynchophylline]: the Stability in data set [1] (QC sample 5 μM) stood at 108.52 ± 1.08%; in data set [1] (QC sample 60 μM) it was 100.08 ± 2.26%; in data set [1] (QC sample 120 μM), 105.21 ± 3.28%. The Papp in the data set “in vitro” (MDCK-MDR1) is ~10 ×10⁻⁶ cm/s. Further, the Papp B→A in the data set “in vitro” (MDCK-MDR1) worked out at 27.7 ± 0.93 ×10⁻⁶ cm/s. In “in vitro” (setting [6]), the Papp A→B was 17.7 ± 1.2 ×10⁻⁶ cm/s. Moreover, the recovery at 90 min, 40 µM in data set [3] (AP→BL, 40 μM, 90 min) amounted to 94.3 ± 1.43%; in data set [3] (BL→AP, 40 μM, 90 min) it was 101 ± 1.89%. Moreover, the figures for the “Intracellular Accumulation” value in data set [4] (AP→BL) and in data set [4] (BL→AP) were 0.24 ± 0.04% and 0.37 ± 0.06%, respectively. For the same molecule, the transport mechanism result in data set [4] is given as “passive diffusion”.
For the molecule `C=C[C@H]1CN2CC[C@]3(C(=O)Nc4ccccc43)[C@@H]2C[C@@H]1/C(=C\OC)C(=O)OC` [alkaloid 3, corynoxeine], the Papp A→B at 90 min, 40 µM in the data set with P-gp (dog, MDCK-MDR1) is 17.2 ± 2.45 ×10⁻⁶ cm/s; in “in vitro” (MDCK-MDR1) it was 1.21 ± 0.14 ×10⁻⁶ cm/s. Also, the Papp B→A at 90 min, 40 µM in the data set with P-gp (dog, MDCK-MDR1) was 17.5 ± 0.82 ×10⁻⁶ cm/s; in “in vitro” (MDCK-MDR1) it was 49.7 ± 4.71 ×10⁻⁶ cm/s. In the data set on P-gp (dog, MDCK-MDR1, with verapamil 100 µM, Efflux Ratio (Papp BL→AP/Papp AP→BL), 40 μM alkaloid with 100 μM verapamil, 90 min), the efflux ratio at 90 min, 40 µM was < 2. The Stability amounted to 106.67 ± 5.82% in data set [1] (QC sample 5 μM), 102.37 ± 1.65% in data set [1] (QC sample 60 μM) and 101.52 ± 2.26% in data set [1] (QC sample 120 μM). Further, the BBB permeability classification entry in data set [2] is reported as “moderate permeability”. In addition, in data set [2], the intracellular accumulation rates entry is “less than 0.4%”. In “in vitro” (MDCK-MDR1), the apical-to-basolateral permeability (Papp A→B) was ~1 ×10⁻⁶ cm/s. Further, the recovery at 90 min, 40 µM in data set [3] (AP→BL, 40 μM, 90 min) was determined as 96.4 ± 1.17%; in data set [3] (BL→AP, 40 μM, 90 min) it was 99.6 ± 1.57%. For the same molecule, the “Efflux Ratio (Papp BL→AP/Papp AP→BL)” value is recorded as 40.94 in data set [4] and “above 2” in data set [4] (listed as corynoxeine (3)).
On to `C=C[C@H]1CN2CC[C@@]3(C(=O)Nc4ccccc43)[C@@H]2C[C@@H]1/C(=C\OC)C(=O)OC` [alkaloid 4, isocorynoxeine], for which the Stability is listed as 107.15 ± 5.06% in data set [1] (QC sample 5 μM), 102.72 ± 1.97% in data set [1] (QC sample 60 μM) and 102.02 ± 2.43% in data set [1] (QC sample 120 μM). In addition, in data set [2], the intracellular accumulation rates entry is listed as “less than 0.4%”. The molecule also showed a Papp A→B at 90 min, 40 µM in the data set “in vitro” (MDCK-MDR1) of 11.1 ± 1.49 ×10⁻⁶ cm/s. Besides, in “in vitro” (MDCK-MDR1), the apparent permeability from basolateral to apical (Papp B→A) at 90 min, 40 µM amounted to 20.7 ± 1.03 ×10⁻⁶ cm/s. Besides, the Papp at 90 min, 40 µM in “in vitro” (MDCK-MDR1) is ~10 ×10⁻⁶ cm/s. Besides, in data set [3] (MDCK-MDR1, Efflux Ratio (Papp BL→AP/Papp AP→BL), 40 μM, 90 min), the efflux ratio at 90 min, 40 µM is < 2. In addition, the recovery at 90 min, 40 µM in data set [3] (AP→BL, 40 μM, 90 min) is 93 ± 1.4%; in data set [3] (BL→AP, 40 μM, 90 min), 98.47 ± 0.82%.
`CC[C@H]1CN2CCc3c([nH]c4ccccc34)[C@H]2C[C@@H]1/C(=C\OC)C(=O)OC` [alkaloid 5, hirsutine]: the Stability is 106.1 ± 3.57% in data set [1] (QC sample 5 μM), 101.9 ± 6.51% in data set [1] (QC sample 60 μM) and 100.5 ± 4.86% in data set [1] (QC sample 120 μM). Also, in the data set “in vitro” (MDCK-MDR1), the Papp is ~10 ×10⁻⁶ cm/s. The basolateral-to-apical permeability (Papp B→A) in the data set “in vitro” (MDCK-MDR1) came to 14.1 ± 0.73 ×10⁻⁶ cm/s. In addition, the apical-to-basolateral permeability (Papp A→B) in “in vitro” (setting [6]) was 15.1 ± 1.32 ×10⁻⁶ cm/s. The recovery at 90 min, 40 µM was found to be 89.3 ± 6.15% in data set [3] (AP→BL, 40 μM, 90 min) and 104 ± 1.94% in data set [3] (BL→AP, 40 μM, 90 min). Also, the “Intracellular Accumulation” value in data set [4] (BL→AP) was 6.19 ± 0.73%. The transport mechanism entry in data set [4] is listed as “passive diffusion”.
Consider `C=C[C@H]1CN2CCc3c([nH]c4ccccc34)[C@H]2C[C@@H]1/C(=C\OC)C(=O)OC` [alkaloid 6, hirsuteine], for which the figures for the Stability in data set [1] (QC sample 5 μM), in data set [1] (QC sample 60 μM) and in data set [1] (QC sample 120 μM) were 106.89 ± 3.01%, 103.80 ± 5.92% and 102.23 ± 4.19%, respectively. In the data set “in vitro” (MDCK-MDR1), this molecule returned a Papp A→B at 90 min, 40 µM of 14.9 ± 1.83 ×10⁻⁶ cm/s. In the data set “in vitro” (MDCK-MDR1), this molecule registered a Papp B→A at 90 min, 40 µM of 11.3 ± 1.8 ×10⁻⁶ cm/s. In addition, the Papp at 90 min, 40 µM in “in vitro” (MDCK-MDR1) is ~10 ×10⁻⁶ cm/s. In addition, the recovery at 90 min, 40 µM was 88.9 ± 5.99% in data set [3] (AP→BL, 40 μM, 90 min) and 104 ± 1.17% in data set [3] (BL→AP, 40 μM, 90 min).
Consider `Cn1c(=O)c2c(ncn2C)n(C)c1=O` [caffeine, reference compound], for which the apparent permeability (Papp) at 90 min in data set [3] (MDCK-MDR1) was determined as 30 ×10⁻⁶ cm/s.
